# Experimental data published in PMC8330742, “New benzothieno[2,3-c]pyridines as non-steroidal CYP17 inhibitors: design, synthesis, anticancer screening, apoptosis induction, and in silico ADME profile studies” (Journal of Enzyme Inhibition and Medicinal Chemistry, 2021).
# What was measured:
# [1] = system: panel of 60 cancer cell lines; test: NCI-60 SRB screen, mean or range over the panel; format: cell-based, human; settings: Homo sapiens; mean over the cell lines; single dose 10^−5 M; read-out: Mean growth inhibition (%)
# [2] = system: NCI-H522; test: NCI-60 SRB screen; format: cell-based, human; settings: Homo sapiens; single dose 10^−5 M; NCI-H522, Non-small cell lung carcinoma; read-out: Growth inhibition (%)
# [3] = system: NCI-H322M; test: NCI-60 SRB screen; format: cell-based, human; settings: Homo sapiens, single dose 10^−5 M, Non-small cell lung carcinoma, read-out: Growth inhibition (%)
# [4] = system: K-562; test: NCI-60 SRB screen; format: cell-based, human; settings: Homo sapiens, K562; single dose 10^−5 M; K-562, Leukaemia; read-out: Growth inhibition (%)
# [5] = system: EKVX; test: NCI-60 SRB screen; format: cell-based, human; settings: Homo sapiens, single dose 10^−5 M, Non-small cell lung carcinoma, read-out: Growth inhibition (%)
# [6] = system: OVCAR-8; test: NCI-60 SRB screen; format: cell-based, human; settings: Homo sapiens; single dose 10^−5 M; OVCAR-8, Ovarian cancer; read-out: Growth inhibition (%)
# [7] = system: HCT-116; test: NCI-60 SRB screen; format: cell-based, human; settings: Homo sapiens; single dose 10^−5 M; HCT-116, Colon cancer; read-out: Growth inhibition (%)
# [8] = system: CCRF-CEM; test: NCI-60 SRB screen; format: cell-based; settings: Homo sapiens, single dose 10^−5 M, Leukaemia, read-out: Growth inhibition (%)
# [9] = system: OVCAR-4; test: NCI-60 SRB screen; format: cell-based, human; settings: Homo sapiens; single dose 10^−5 M; OVCAR-4, Ovarian cancer; read-out: Growth inhibition (%)
# [10] = system: TK-10; test: NCI-60 SRB screen; format: cell-based, human; settings: Homo sapiens; single dose 10^−5 M; TK-10, Renal cancer; read-out: Growth inhibition (%)
# [11] = system: SN12C; test: NCI-60 SRB screen; format: cell-based, human; settings: Homo sapiens, SN12C; single dose 10^−5 M; SN 12 C, Renal cancer; read-out: Growth inhibition (%)
# [12] = system: HL-60(TB); test: NCI-60 SRB screen; format: cell-based, human; settings: Homo sapiens; single dose 10^−5 M; HL-60(TB), Leukaemia; read-out: Growth inhibition (%)
# [13] = system: HOP-62; test: NCI-60 SRB screen; format: cell-based, human; settings: Homo sapiens; single dose 10^−5 M; HOP-62, Non-small cell lung carcinoma; read-out: Growth inhibition (%)
# [14] = system: SK-MEL-5; test: NCI-60 SRB screen; format: cell-based, human; settings: Homo sapiens; single dose 10^−5 M; SK-MEL-5, Melanoma; read-out: Growth inhibition (%)
# [15] = system: HCT-15; test: NCI-60 SRB screen; format: cell-based, human; settings: Homo sapiens; single dose 10^−5 M; HCT-15, Colon cancer; read-out: Growth inhibition (%)
# [16] = system: CAKI-1; test: NCI-60 SRB screen; format: cell-based, human; settings: Homo sapiens; single dose 10^−5 M; CAKI-1, Renal cancer; read-out: Growth inhibition (%)
# [17] = system: NCI-H226; test: NCI-60 SRB screen; format: cell-based, human; settings: Homo sapiens; single dose 10^−5 M; NCI-H226, Non-small cell lung carcinoma; read-out: Growth inhibition (%)
# [18] = system: NCI/ADR-RES; test: NCI-60 SRB screen; format: cell-based, human; settings: Homo sapiens, single dose 10^−5 M, Ovarian cancer, read-out: Growth inhibition (%)
# [19] = system: SK-MEL-2; test: NCI-60 SRB screen; format: cell-based, human; settings: Homo sapiens; single dose 10^−5 M; SK-MEL-2, Melanoma; read-out: Growth inhibition (%)
# [20] = system: HCC-2998; test: NCI-60 SRB screen; format: cell-based, human; settings: Homo sapiens; single dose 10^−5 M; HCC-2998, Colon cancer; read-out: Growth inhibition (%)
# [21] = system: HOP-92; test: NCI-60 SRB screen; format: cell-based, human; settings: Homo sapiens; single dose 10^−5 M; HOP-92, Non-small cell lung carcinoma; read-out: Growth inhibition (%)
# [22] = system: LOX IMVI; test: NCI-60 SRB screen; format: cell-based, human; settings: Homo sapiens, single dose 10^−5 M, Melanoma, read-out: Growth inhibition (%)
# [23] = system: M14; test: NCI-60 SRB screen; format: cell-based, human; settings: Homo sapiens; single dose 10^−5 M; M14, Melanoma; read-out: Growth inhibition (%)
# [24] = system: IGROV1; test: NCI-60 SRB screen; format: cell-based, human; settings: Homo sapiens, IGROV-1; single dose 10^−5 M; IGROV1, Ovarian cancer; read-out: Growth inhibition (%)
# [25] = system: 786-0; test: NCI-60 SRB screen; format: cell-based; settings: Homo sapiens; single dose 10^−5 M; 786-0, Renal cancer; read-out: Growth inhibition (%)
# [26] = system: NCI-H460; test: NCI-60 SRB screen; format: cell-based, human; settings: Homo sapiens; single dose 10^−5 M; NCI-H460, Non-small cell lung carcinoma; read-out: Growth inhibition (%)
# [27] = system: SK-MEL-28; test: NCI-60 SRB screen; format: cell-based; settings: Homo sapiens; single dose 10^−5 M; SK-MEL-28, Melanoma; read-out: Growth inhibition (%)
# [28] = system: SR; test: NCI-60 SRB screen; format: cell-based; settings: Homo sapiens, single dose 10^−5 M, Leukaemia, read-out: Growth inhibition (%)
# [29] = system: UO-31; test: NCI-60 SRB screen; format: cell-based, human; settings: Homo sapiens; single dose 10^−5 M; UO-31, Renal cancer; read-out: Growth inhibition (%)
# [30] = system: SF-268; test: NCI-60 SRB screen; format: cell-based, human; settings: Homo sapiens; single dose 10^−5 M; SF-268, CNS cancer; read-out: Growth inhibition (%)
# [31] = system: RXF 393; test: NCI-60 SRB screen; format: cell-based, human; settings: Homo sapiens; single dose 10^−5 M; RXF 393, Renal cancer; read-out: Growth inhibition (%)
# [32] = system: UACC-257; test: NCI-60 SRB screen; format: cell-based, human; settings: Homo sapiens; single dose 10^−5 M; UACC-257, Melanoma; read-out: Growth inhibition (%)
# [33] = system: SW-620; test: NCI-60 SRB screen; format: cell-based; settings: Homo sapiens; single dose 10^−5 M; SW-620, Colon cancer; read-out: Growth inhibition (%)
# [34] = system: A549/ATCC; test: NCI-60 SRB screen; format: cell-based, human; settings: Homo sapiens, single dose 10^−5 M, Non-small cell lung carcinoma, read-out: Growth inhibition (%)
# [35] = system: COLO 205; test: NCI-60 SRB screen; format: cell-based, human; settings: Homo sapiens; single dose 10^−5 M; COLO 205, Colon cancer; read-out: Growth inhibition (%)
# [36] = system: UACC-62; test: NCI-60 SRB screen; format: cell-based, human; settings: Homo sapiens; single dose 10^−5 M; UACC-62, Melanoma; read-out: Growth inhibition (%)
# [37] = system: SK-OV-3; test: NCI-60 SRB screen; format: cell-based, human; settings: Homo sapiens; single dose 10^−5 M; SK-OV-3, Ovarian cancer; read-out: Growth inhibition (%)
# [38] = system: ACHN; test: NCI-60 SRB screen; format: cell-based; settings: Homo sapiens, single dose 10^−5 M, Renal cancer, read-out: Growth inhibition (%)
# [39] = system: NCI-H23; test: NCI-60 SRB screen; format: cell-based, human; settings: Homo sapiens; single dose 10^−5 M; NCI-H23, Non-small cell lung carcinoma; read-out: Growth inhibition (%)
# [40] = system: KM12; test: NCI-60 SRB screen; format: cell-based, human; settings: Homo sapiens; single dose 10^−5 M; KM12, Colon cancer; read-out: Growth inhibition (%)
# [41] = system: MOLT-4; test: NCI-60 SRB screen; format: cell-based; settings: Homo sapiens; single dose 10^−5 M; MOLT-4, Leukaemia; read-out: Growth inhibition (%)
# [42] = system: MDA-MB-435; test: NCI-60 SRB screen; format: cell-based; settings: Homo sapiens, MDA-MB-435, read-out: Growth inhibition (%)
# [43] = system: SF-295; test: NCI-60 SRB screen; format: cell-based, human; settings: Homo sapiens; single dose 10^−5 M; SF-295, CNS cancer; read-out: Growth inhibition (%)
# [44] = system: OVCAR-3; test: NCI-60 SRB screen; format: cell-based, human; settings: Homo sapiens; single dose 10^−5 M; OVCAR-3, Ovarian cancer; read-out: Growth inhibition (%)
smiles,measurement,setting,value
"O=[N+]([O-])c1cccc(C2NC3=C(Nc4ccccc4N3)c3c2sc2c(F)cccc32)c1 (stereo not shown) [Compound 9, 9-Fluoro-7-(3-nitrophenyl)-5,6,7,13-tetrahydro[1]benzothieno[3′,2′:4,5]-pyrido[2,3-b]quinoxaline]",inhibition at 10 µM,[1],7.87%
same,inhibition at 10 µM,[2],4.63%
same,inhibition at 10 µM,[3],-1.56%
same,inhibition at 10 µM,[4],16.6%
same,inhibition at 10 µM,[5],4.82%
same,inhibition at 10 µM,[6],-3.4%
same,inhibition at 10 µM,[7],-1.05%
same,inhibition at 10 µM,[8],-1.14%
same,inhibition at 10 µM,[9],-2.74%
same,inhibition at 10 µM,[10],-54.7%
same,inhibition at 10 µM,[11],1.71%
same,inhibition at 10 µM,[12],-3.65%
same,inhibition at 10 µM,[13],9.45%
same,inhibition at 10 µM,[14],-22%
same,inhibition at 10 µM,[15],-4.08%
same,inhibition at 10 µM,[16],28.3%
same,inhibition at 10 µM,[17],10.4%
same,inhibition at 10 µM,[18],-6.5%
same,inhibition at 10 µM,[19],3.87%
same,inhibition at 10 µM,[20],-17.5%
same,inhibition at 10 µM,[21],-1.53%
same,inhibition at 10 µM,[22],3.13%
same,inhibition at 10 µM,[23],1.33%
same,inhibition at 10 µM,[24],24.2%
same,inhibition at 10 µM,[25],-10.3%
same,inhibition at 10 µM,[26],1.16%
same,inhibition at 10 µM,[27],-7.98%
same,inhibition at 10 µM,[28],16.5%
same,inhibition at 10 µM,[29],36.1%
same,inhibition at 10 µM,[30],7.06%
same,inhibition at 10 µM,[31],-15.3%
same,inhibition at 10 µM,[32],-15.2%
same,inhibition at 10 µM,[33],2%
same,inhibition at 10 µM,[34],-2.98%
same,inhibition at 10 µM,[35],-17.1%
same,inhibition at 10 µM,[36],11.5%
same,inhibition at 10 µM,[37],-1.7%
same,inhibition at 10 µM,[38],15.5%
same,inhibition at 10 µM,[39],0.22%
same,inhibition at 10 µM,[40],-0.46%
same,inhibition at 10 µM,[41],-1.99%
same,inhibition at 10 µM,[42],-7%
same,inhibition at 10 µM,[43],-7.1%
same,inhibition at 10 µM,[44],-3.93%
"N#CC1=C(Nc2ccccc2F)NC(c2cccc([N+](=O)[O-])c2)c2sc3c(F)cccc3c21 (stereo not shown) [Compound 10, 4-Cyano-8-fluoro-3((2-fluorophenyl)amino)-1–(3-nitrophenyl)-1,2-dihydro[1]benzothieno[2,3-c]pyridine]",inhibition at 10 µM,[1],-0.095%
same,inhibition at 10 µM,[2],-2.13%
same,inhibition at 10 µM,[3],-0.11%
same,inhibition at 10 µM,[4],2.72%
same,inhibition at 10 µM,[5],9.27%
same,inhibition at 10 µM,[6],-6.58%
same,inhibition at 10 µM,[7],3.44%
same,inhibition at 10 µM,[8],2.96%
same,inhibition at 10 µM,[9],-3.9%
same,inhibition at 10 µM,[10],-55.4%
same,inhibition at 10 µM,[11],0.49%
same,inhibition at 10 µM,[12],-13.1%
same,inhibition at 10 µM,[13],8.27%
same,inhibition at 10 µM,[14],-19.6%
same,inhibition at 10 µM,[15],-5.46%
same,inhibition at 10 µM,[16],21.1%
same,inhibition at 10 µM,[17],12.8%
same,inhibition at 10 µM,[18],-8.27%
same,inhibition at 10 µM,[19],0.67%
same,inhibition at 10 µM,[20],-20.3%
same,inhibition at 10 µM,[21],9.6%
same,inhibition at 10 µM,[22],3.26%
same,inhibition at 10 µM,[23],1.68%
same,inhibition at 10 µM,[24],16.1%
same,inhibition at 10 µM,[25],-12.3%
same,inhibition at 10 µM,[26],-1.1%
same,inhibition at 10 µM,[27],-11%
same,inhibition at 10 µM,[28],13%
same,inhibition at 10 µM,[29],31.2%
same,inhibition at 10 µM,[30],4.7%
same,inhibition at 10 µM,[31],-5.32%
same,inhibition at 10 µM,[32],-23.2%
same,inhibition at 10 µM,[33],2.45%
same,inhibition at 10 µM,[34],-7.45%
same,inhibition at 10 µM,[35],-13.3%
same,inhibition at 10 µM,[36],6.75%
same,inhibition at 10 µM,[37],10.1%
same,inhibition at 10 µM,[38],9.97%
same,inhibition at 10 µM,[39],-1.96%
same,inhibition at 10 µM,[40],0.14%
same,inhibition at 10 µM,[41],6.48%
same,inhibition at 10 µM,[42],-4.45%
same,inhibition at 10 µM,[43],-4.19%
same,inhibition at 10 µM,[44],-1.64%
